According to patent publication US20250186554A1, “FORMULATIONS COMPRISING ACID-NEUTRALIZING POLYMER FOR ORAL ADMINISTRATION OF GLUCAGON-LIKE PEPTIDE-1 AND ANALOGS THEREOF” (Entera Bio Ltd., priority 2022, published 2025):

How the values were obtained:
[1] = pH upon addition of test substance to 0.1 M HCl solution (pH 1.2), pH meter; type: physicochemical
Protocol: Test substances were dissolved in various volumes of 0.1 M HCl solution (pH 1.2) at concentrations of 1, 2, 4, 10, 20, 50, 100 and 150 mg/ml. The solution pH was determined using an MP-103 pH-meter (MRC, Israel) equipped with ELC-10-00 electrode (MRC, Israel) or with a thin electrode HI1083 (HANNA instruments Inc.), shortly after dissolution and up to 26 hours later in order to ensure that the pH remained stable. The highest pH value obtained during the experimental time period was recorded in order to compare the acid-neutralizing capacity of each substance.
SNAC and the basic polymers sodium alginate, sodium carboxymethylcellulose in non-crosslinked (Na-CMC) and crosslinked (croscarmellose sodium, CCS) forms, and sodium starch glycolate (SSG) were dissolved in various volumes of 0.1 M HCl solution (pH 1.2) at concentrations of 1, 2, 4, 10, 20, 50, 100 and 150 mg/ml, and the solution pH was determined using an MP-103 pH-meter (MRC, Israel) equipped with ELC-10-00 electrode (MRC, Israel), as described in the Materials and Methods section hereinabove.
In order to obtain a beneficial rise in pH with a reduced loss of the active form of the absorption enhancer, the effect of various concentrations of different polymers containing carboxylate groups (sodium alginate, sodium starch glycolate, sodium carboxymethylcellulose, and croscarmellose sodium) on pH upon addition to a 0.1 M HCl solution (pH 1.2) was also evaluated. FIG. 2A presents pH values determined using an MP-103 pH-meter (MRC, Israel) equipped with ELC-10-00 electrode (MRC, Israel) and FIG. 2B presents pH values determined using an MP-103 pH-meter (MRC, Israel) equipped with a thin electrode HI1083 (HANNA instruments Inc.).

[2] = in vivo; cited from earlier work

Molecule	pH 5 minutes after dissolution ([1]; 10 mg/ml SNAC added to HCl solution (pH 1.2))	pH 5 minutes after dissolution ([1]; 20 mg/ml SNAC added to HCl solution (pH 1.2))	pH 5 minutes after dissolution ([1]; 100 mg/ml SNAC added to HCl solution (pH 1.2))	half-life [2]
O=C(O)CCCCCCCNC(=O)c1ccccc1O [SNAC, sodium 8-N-(2-hydroxybenzoyl)aminocaprylate]	about 1.5	6.5	about 7.5	–
Semaglutide: fatty acid derivative of a GLP-1 homolog	–	–	–	about 7 days
